From patent US20080064714A1, “Novel Pyrrolodihydroisoquinolines” (NYCOMED GMBH, priority 2005, published 2008)

Columns and labels:
[1] = test system: NCl-H460 non-small cell lung cancer cells; assay: Alamar Blue cell viability assay (anti-proliferative/cytotoxic activity); type: cell-based; conditions: Homo sapiens, NCI-H460 cells, 72 hours incubation, read-out: −log IC50 NCI-H460 (mol/l), anti-proliferative/cytotoxic activity (converted)
Method: The anti-proliferative/cytotoxic activity of the compounds described herein, can be tested on NCl-H460 non-small cell lung cancer cells using the Alamar Blue cell viability assay (described in O'Brien et al. Eur J Biochem 267, 5421-5426, 2000). The compounds are dissolved as 20 mM solutions in dimethylsulfoxide (DMSO) and subsequently diluted in semi-logarithmic steps. DMSO dilutions are further diluted 1:10 into Dulbecco's modified Eagle's medium (DMEM) containing 10% fetal calf serum to a final concentration ten times as much as the final concentration in the test. NCl-H460 cells are seeded into 96 well flat bottom plates at a density of 4000 cells per well in a volume of 180 μl per well. 24 hours after seeding the 20 μl each of the compound dilutions in DMEM medium are added into each well of the 96 Well plate. Each compound dilution is tested as quadruplicates. Wells containing untreated control cells are filled with […] DMEM medium containing 1% DMSO. The cells are then incubated with the substances for 72 hours at 37° C. in a humified atmosphere containing 5% carbon dioxide. To determine the viability of the cells, 20 μl of an Alamar Blue solution (Biosource) are added and the fluorescence is measured at an extinction of 544 nm and an emission of 590 nm. For the calculation of cell viability the emission value from untreated cells is set to 100% viability and the emission rates of treated cells are set in relation to the values of untreated cells. Viabilities are expressed as % values.
The corresponding IC50 values of the compounds for anti-proliferative/cytotoxic activity are determined from the concentration-effect curves.
Representative IC50 values for anti-proliferation/cytotoxicity determined in the aforementioned assay follow from the following table A, in which the numbers of the compound correspond to the numbers of the examples.

[2] = test system: NCl-H460 non-small cell lung cancer cells; assay: modified Alamar Blue cell viability assay for compound combinations; type: cell-based; conditions: in combination with the compounds according to this invention; concentration-effect curves, single compound vs. combination
Method: In order to assess favorable compound combinations in vitro which might be used for therapeutic applications, a modified Alamar Blue cell viability assay (described in O'Brien et al. Eur J Biochem 267, 5421-5426, 2000) is applied. For that purpose, anti-proliferative/cytotoxic effects of the compounds described herein in combination with other pharmacologically active compounds are assayed on NCl-H460 non-small cell lung cancer cells. The respective compounds are dissolved as 20 mM solutions in dimethylsulfoxide (DMSO) and subsequenty diluted in semi-logarithmic steps. […] To determine the viability of the cells, 20 μl of an Alamar Blue solution (Biosource) are added and the fluorescence is measured at an extinction of 544 nm and an emission of 590 nm. For the calculation of cell viability the fluorescence emission value from untreated cells is set to 100% viability and the emission values of treated cells are set in relation to the values of untreated cells. Viabilities are expressed as % values. […]
Synergistic or antagonistic effects of compound combinations can be determined from the concentration-effect curves by comparison of curve shapes and IC50 values for single compound treatment vs. the compound combination.

Row | SMILES | IC50 [1] [nM] | melting point [°C] | synergistic effects with the compounds according to this invention [2]
1 | COc1cc2c(cc1OC)-c1c(C(=O)C3CC3)c(-c3cc(C)c(O)c(C)c3)c(C)n1CC2 [Example 6, 1-Cyclopropyl-1-[2-(4-hydroxy-3,5-dimethyl-phenyl)-8,9-dimethoxy-3-methyl-5,6-dihydro-pyrrolo[2,1-a]isoquinolin-1-yl]-methanone] | 158 to 1580 | – | –
2 | CCC(=O)c1c(-c2ccc(-c3ccccc3)cc2)c(C)n2c1-c1cc(OC)c(OC)cc1CC2 [Example 5, 1-(2-Biphenyl-4-yl-8,9-dimethoxy-3-methyl-5,6-dihydro-pyrrolo[2,1-a]isoquinolin-1-yl)-propan-1-one] | 158 to 1580 | 209 to 211 | –
3 | CCC(=O)c1c(-c2csc3ccccc23)c(C)n2c1-c1cc(OC)c(OC)cc1CC2 [Example 3, 1-(2-Benzo[b]thiophen-3-yl-8,9-dimethoxy-3-methyl-5,6-dihydro-pyrrolo[2,1-a]isoquinolin-1-yl)-propan-1-one] | 158 to 1580 | 181 to 183 | –
4 | Nc1ncnc2c1nc(Sc1ccc(Cl)cc1)n2[C@@H]1O[C@@H]2COP(O)(=S)O[C@H]2[C@H]1O (stereo partly shown) [RP-8-CPT-cAMPs] | – | – | highly synergistic
5 | CCC(=O)c1c(-c2ccc(OC)c(OC)c2F)c(C)n2c1-c1cc(OC)c(OC)cc1CC2 [Example 2, 1-[2-(2-Fluoro-3,4-dimethoxy-phenyl)-8,9-dimethoxy-3-methyl-5,6-dihydro-pyrrolo[2,1-a]isoquinolin-1-yl]-propan-1-one] | – | 129 to 132 | –
6 | CCC(=O)c1c(-c2c[nH]c3ccccc23)c(C)n2c1-c1cc(OC)c(OC)cc1CC2 [Example 4, 1-[2-(1H-Indol-3-yl)-8,9-dimethoxy-3-methyl-5,6-dihydro-pyrrolo[2,1-a]isoquinolin-1-yl]-propan-1-one] | 158 to 1580 | 238 to 240 | –
7 | CCC(=O)c1c(-c2cc(C)c(O)c(C)c2)c(C)n2c1-c1cc(OC)c(OC)cc1CC2 [Example 1, 1-[2-(4-Hydroxy-3,5-dimethyl-phenyl)-8,9-dimethoxy-3-methyl-5,6-dihydro-pyrrolo[2,1-a]isoquinolin-1-yl]-propan-1-one] | 158 to 1580 | – | –
